Assay results taken from paper PMC3914206.

Columns and labels:
Format in all cases: binding
panel of 442 kinases [1] = target: T1, panel of 442 kinases (Homo sapiens, UniProt Q9UKI8); settings: kinase TLK1; compound concentration 10 µM
T1 construct: purchased KINOMEscan
T1 sequence (Q9UKI8 1-766): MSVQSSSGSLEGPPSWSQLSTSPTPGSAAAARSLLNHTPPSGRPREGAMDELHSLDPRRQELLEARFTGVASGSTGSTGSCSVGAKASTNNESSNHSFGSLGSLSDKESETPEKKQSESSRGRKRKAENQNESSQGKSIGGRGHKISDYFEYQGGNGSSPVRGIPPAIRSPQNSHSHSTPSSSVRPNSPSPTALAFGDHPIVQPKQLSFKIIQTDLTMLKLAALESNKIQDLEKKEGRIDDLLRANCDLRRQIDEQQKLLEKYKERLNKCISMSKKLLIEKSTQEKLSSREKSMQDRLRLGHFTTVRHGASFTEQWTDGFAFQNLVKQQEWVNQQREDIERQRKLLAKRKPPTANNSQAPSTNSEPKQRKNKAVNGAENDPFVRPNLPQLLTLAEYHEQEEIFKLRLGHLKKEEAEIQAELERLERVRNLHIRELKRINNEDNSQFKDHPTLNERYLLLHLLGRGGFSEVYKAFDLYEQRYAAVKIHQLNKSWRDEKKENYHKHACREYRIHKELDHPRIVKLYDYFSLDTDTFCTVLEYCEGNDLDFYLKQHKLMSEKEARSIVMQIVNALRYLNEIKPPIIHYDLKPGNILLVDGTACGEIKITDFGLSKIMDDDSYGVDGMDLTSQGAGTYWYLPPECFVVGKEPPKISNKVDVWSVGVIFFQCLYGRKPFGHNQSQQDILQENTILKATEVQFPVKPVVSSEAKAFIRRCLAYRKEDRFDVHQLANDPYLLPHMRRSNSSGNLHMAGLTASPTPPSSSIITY
Source text: (§1) We assessed the selectivity of members of this scaffold using the KINOMEscan methodology across a near comprehensive panel of 442 kinases [[18,27]].

panel of 442 kinases [2] = target: T2, panel of 442 kinases (Homo sapiens, UniProt Q8N5S9); settings: Compound Concentration 10 µM
T2 construct: purchased KINOMEscan
Source text: as §1

panel of 442 kinases [3] = target: T3, panel of 442 kinases (Homo sapiens, UniProt P51957); settings: Compound Concentration 10 µM
T3 construct: purchased KINOMEscan
Source text: as §1

T3 sequence (P51957 whole entry): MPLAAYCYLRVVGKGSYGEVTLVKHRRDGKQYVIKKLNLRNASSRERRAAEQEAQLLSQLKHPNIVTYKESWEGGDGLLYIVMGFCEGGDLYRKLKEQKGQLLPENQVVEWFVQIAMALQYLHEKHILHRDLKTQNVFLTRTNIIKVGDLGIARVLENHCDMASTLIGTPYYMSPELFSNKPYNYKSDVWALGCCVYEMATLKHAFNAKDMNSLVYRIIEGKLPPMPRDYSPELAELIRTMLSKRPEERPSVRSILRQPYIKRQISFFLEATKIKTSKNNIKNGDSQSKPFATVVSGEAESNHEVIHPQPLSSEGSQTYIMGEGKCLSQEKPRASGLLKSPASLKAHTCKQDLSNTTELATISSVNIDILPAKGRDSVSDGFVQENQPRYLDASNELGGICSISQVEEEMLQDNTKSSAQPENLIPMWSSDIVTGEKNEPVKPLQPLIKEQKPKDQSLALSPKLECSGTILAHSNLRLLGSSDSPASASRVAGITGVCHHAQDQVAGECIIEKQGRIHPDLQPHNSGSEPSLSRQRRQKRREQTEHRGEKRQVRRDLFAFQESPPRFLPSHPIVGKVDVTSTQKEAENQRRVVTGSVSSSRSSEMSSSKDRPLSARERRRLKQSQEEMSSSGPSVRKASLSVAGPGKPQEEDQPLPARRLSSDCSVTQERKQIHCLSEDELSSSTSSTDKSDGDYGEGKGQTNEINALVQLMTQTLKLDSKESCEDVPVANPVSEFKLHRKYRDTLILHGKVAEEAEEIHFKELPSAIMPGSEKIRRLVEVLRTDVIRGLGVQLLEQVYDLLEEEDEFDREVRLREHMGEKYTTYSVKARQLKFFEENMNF
T2 sequence (Q8N5S9 whole entry): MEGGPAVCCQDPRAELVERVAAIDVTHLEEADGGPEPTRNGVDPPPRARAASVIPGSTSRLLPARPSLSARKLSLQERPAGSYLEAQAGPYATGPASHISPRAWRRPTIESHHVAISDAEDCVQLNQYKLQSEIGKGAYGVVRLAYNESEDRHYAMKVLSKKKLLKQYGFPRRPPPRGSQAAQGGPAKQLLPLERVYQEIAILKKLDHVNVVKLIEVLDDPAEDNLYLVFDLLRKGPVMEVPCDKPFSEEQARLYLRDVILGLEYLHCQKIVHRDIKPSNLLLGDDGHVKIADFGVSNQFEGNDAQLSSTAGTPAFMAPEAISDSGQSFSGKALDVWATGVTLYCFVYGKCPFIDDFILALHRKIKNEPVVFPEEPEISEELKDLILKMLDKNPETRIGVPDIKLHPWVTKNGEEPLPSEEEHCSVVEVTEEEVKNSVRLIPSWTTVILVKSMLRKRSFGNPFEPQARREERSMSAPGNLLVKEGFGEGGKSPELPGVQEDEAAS

SMILES	% Ctrl, TLK1 (panel of 442 kinases [1])	KINOMEscan: CAMKK1 (panel of 442 kinases [2])	KINOMEscan: NEK4 (panel of 442 kinases [3])
COc1cc(C(=O)N2CCC(N3CCN(C)CC3)CC2)ccc1Nc1ncc2c(n1)N(C)c1ccccc1C(=O)N2C [15 (LRRK2-IN-1)]	100 % Ctrl	73	95
COc1cc(C(=O)N2CCC(N3CCN(C)CC3)CC2)ccc1Nc1ncc2c(n1)N(C1CCCC1)c1ccccc1C(=O)N2C [Compound 25, 11-cyclopentyl-2-((2-methoxy-4-(4-(4-methylpiperazin-1-yl)piperidine-1-carbonyl)phenyl)amino)-5-methyl-5H-benzo[e]pyrimido[5,4-b][1,4]diazepin-6(11H)-one]	74 % Ctrl	99	97
CCOc1cc(C(=O)N2CCC(N3CCN(C)CC3)CC2)ccc1Nc1ncc2c(n1)N(C1CCCC1)c1ccccc1C(=O)N2C [Compound 26]	90 % Ctrl	100	89
